Results reported in ChEMBL document CHEMBL1201862, “PubChem BioAssay data set” (2004).
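Assay format: 96-well plates, 48-hour exposure. Here, GI50 denotes the concentration required for 50% inhibition of growth.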 Calls of active or inactive are those of the source. Rule as the data show it: active = GI50 up to about 1.1 µM and inactive = higher.

Key:
Assay in all cases: NCI-60 cell line screen, 48 h
[1] = test system: UACC-62
[2] = test system: Malme-3M
[3] = test system: COLO 205
[4] = test system: SN12C
[5] = test system: SK-MEL-2
[6] = test system: SNB-78
[7] = test system: U-251
[8] = test system: OVCAR-3
[9] = test system: LXFL 529
[10] = test system: CAKI-1
[11] = test system: SK-OV-3
[12] = test system: 786-0
[13] = test system: NCI-H522
[14] = test system: A498
[15] = test system: HCC 2998
[16] = test system: M14
[17] = test system: LOX IMVI
[18] = test system: OVCAR-8
[19] = test system: TK-10
[20] = test system: HCT-116
[21] = test system: RPMI-8226
[22] = test system: SF-539
[23] = test system: HOP-18
[24] = test system: DMS-114
[25] = test system: HOP-92
[26] = test system: HOP-62
[27] = test system: KM-20L2
[28] = test system: MOLT-4
[29] = test system: RXF 393
[30] = test system: CCRF-CEM
[31] = test system: HT-29
[32] = test system: K562
[33] = test system: UO-31
[34] = test system: SK-MEL-5
[35] = test system: NCI-H23
[36] = test system: SK-MEL-28
[37] = test system: SF-295
[38] = test system: EKVX
[39] = test system: SF-268
[40] = test system: UACC-257
[41] = test system: OVCAR-5
[42] = test system: SNB-19
[43] = test system: HCT-15
[44] = test system: DLD-1
[45] = test system: M19-MEL
[46] = test system: OVCAR-4
[47] = test system: DMS-273
[48] = test system: IGROV-1
[49] = test system: SNB-75
[50] = test system: A549
[51] = test system: XF498
[52] = test system: NCI-H226
[53] = test system: SW-620

CC(=O)Nc1ccc(/C=C(\NC(=O)c2ccccc2)c2nc3ccc4c(c3[nH]2)C(=O)c2ccccc2C4=O)cc1
GI50 [1]: 17.9 µM (inactive)
GI50 [2]: > 100 µM (inactive)
GI50 [3]: 57.8 µM (inactive)
GI50 [4]: 25.4 µM (inactive)
GI50 [5]: 48.8 µM (inactive)
GI50 [6]: 58.9 µM (inactive)
GI50 [7]: 16.4 µM (inactive)
GI50 [8]: 12.4 µM (inactive)
GI50 [9]: 28.8 µM (inactive)
GI50 [10]: 5.02 µM (inactive)
GI50 [11]: 72.4 µM (inactive)
GI50 [12]: 35.6 µM (inactive)
GI50 [13]: 4.9 µM (inactive)
GI50 [14]: 7.78 µM (inactive)
GI50 [15]: > 100 µM (inactive)
GI50 [16]: 43.1 µM (inactive)
GI50 [17]: 15.1 µM (inactive)
GI50 [18]: 22.1 µM (inactive)
GI50 [19]: 17.5 µM (inactive)
GI50 [20]: 12.2 µM (inactive)
GI50 [21]: 4.46 µM (inactive)
GI50 [22]: 17.5 µM (inactive)
GI50 [23]: 11 µM (inactive)
GI50 [24]: 17.9 µM (inactive)
GI50 [25]: 22.9 µM (inactive)
GI50 [26]: > 100 µM (inactive)
GI50 [27]: 46.5 µM (inactive)
GI50 [28]: 2.88 µM (inactive)
GI50 [29]: 4.66 µM (inactive)
GI50 [30]: 0.904 µM (active)
GI50 [31]: 45.6 µM (inactive)
GI50 [32]: 19.9 µM (inactive)
GI50 [33]: 1.59 µM (inactive)
GI50 [34]: 21.8 µM (inactive)
GI50 [35]: 21.6 µM (inactive)
GI50 [36]: 45 µM (inactive)
GI50 [37]: 22.6 µM (inactive)
GI50 [38]: 24.3 µM (inactive)
GI50 [39]: 5.94 µM (inactive)
GI50 [40]: > 100 µM (inactive)
GI50 [41]: > 100 µM (inactive)
GI50 [42]: 35.2 µM (inactive)
GI50 [43]: 39.2 µM
GI50 [44]: 13.8 µM (inactive)
GI50 [45]: 78.3 µM (inactive)
GI50 [46]: 56.8 µM (inactive)
GI50 [47]: 32.7 µM (inactive)
GI50 [48]: 7.13 µM (inactive)
GI50 [49]: 9.51 µM (inactive)
GI50 [50]: 12.5 µM (inactive)
GI50 [51]: 84.1 µM (inactive)
GI50 [52]: > 100 µM (inactive)
GI50 [53]: 18.9 µM (inactive)
